Laboratory results: US6673800B2, “4,5,-dihydroisoxazolylakylpiperazine derivatives having selective biological activity at dopamine D3 or D4 receptor, and preparation thereof” (Korea Institute of Science and Technology, priority 2000, dated 2004)

What was measured:
[1] = molecular target: cloned human dopamine receptors D1 (Homo sapiens, UniProt P21728); experiment: Binding affinity to dopamine receptor, radiolabeled ligand displacement (D1); parameters: dose or concentration left out as unconfirmed
Method: (§1) Binding affinities of the compounds for dopamine receptors were determined indirectly by their ability to displace radiolabeled ligand from cloned human dopamine receptors. Compounds were incubated in receptor suspension to compete with the. radiolabeled ligand. The receptor-bound radiolabeled ligand was separated by filtering through Wallac glass fiber filtermat (GF/C) using Inotech cell harvester of 96-well format. The radioactivity bound to filter was counted by Micro-β counter (Wallac).
(§2) The aliquots of cloned human dopamine receptors stored at −70° C. were suspended in assay buffer and the content of receptor in each aliquot was determined by Bio-Rad DC protein assay kit to give an optimal protein (receptor) concentration obtained by preliminary receptor binding assay. Receptor suspension adjusted to optimal concentration was aliquoted in proper volume for assay and stored at −70° C. Binding assays of every compound were performed in duplicate and each different buffer solution was used for optimal assay with each subtype of dopamine receptors. Receptor binding assays were carried out in 96-well plates. Receptor suspension of 100 μl was incubated at 27° C. for 30-60 min in a final volume of 0.25 ml reaction mixture containing 50 μl of hot-ligand and 10 μl of test compound.
(§3) After incubation, the reaction mixture was washed with ice-cold 50 mM Tris-acetate buffer by rapid filtration using a Inotech cell harvester (Inotech, Switzerland) through Whatman GF/C glass fiber filter presoaked in the assay buffer. The filter was covered with MeltiLex, sealed in a sample bag followed by drying in the microwave, and counted by MicroBeta Plus(Wallac, Finland) at a counting efficiency of 30-40%.

[2] = molecular target: cloned human dopamine receptors D3 (Homo sapiens, UniProt P35462); experiment: Binding affinity to dopamine receptor, radiolabeled ligand displacement (D3); parameters: Affinity to Dopamine Receptors (% Inhibition) D3: dose or concentration left out as unconfirmed
Method: as §1, §2, §3

[3] = molecular target: cloned human dopamine receptors D2 (Homo sapiens, UniProt P14416); experiment: Binding affinity to dopamine receptor, radiolabeled ligand displacement (D2); parameters: Affinity to Dopamine Receptors (% Inhibition) D2: dose or concentration left out as unconfirmed
Method: as §1, §2, §3

[4] = molecular target: T1, cloned human dopamine receptors D4 (Homo sapiens, UniProt P21917); experiment: Binding affinity to dopamine receptor, radiolabeled ligand displacement (D4); parameters: Affinity to Dopamine Receptors (% Inhibition) D4: dose or concentration left out as unconfirmed
T1 sequence (P21917 1-419): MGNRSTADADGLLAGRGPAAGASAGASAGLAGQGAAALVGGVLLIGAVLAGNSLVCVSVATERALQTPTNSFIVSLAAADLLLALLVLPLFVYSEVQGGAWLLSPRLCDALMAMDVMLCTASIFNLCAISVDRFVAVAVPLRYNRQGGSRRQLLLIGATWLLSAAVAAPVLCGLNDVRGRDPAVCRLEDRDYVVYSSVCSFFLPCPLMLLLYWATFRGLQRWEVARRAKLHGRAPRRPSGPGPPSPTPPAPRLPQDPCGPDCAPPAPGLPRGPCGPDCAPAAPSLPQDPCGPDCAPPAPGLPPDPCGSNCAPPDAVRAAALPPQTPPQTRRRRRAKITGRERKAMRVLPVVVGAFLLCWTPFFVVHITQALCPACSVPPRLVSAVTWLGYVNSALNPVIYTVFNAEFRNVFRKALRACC
Method: as §1, §2, §3

Sequence of cloned human dopamine receptors D1 (P21728 whole entry): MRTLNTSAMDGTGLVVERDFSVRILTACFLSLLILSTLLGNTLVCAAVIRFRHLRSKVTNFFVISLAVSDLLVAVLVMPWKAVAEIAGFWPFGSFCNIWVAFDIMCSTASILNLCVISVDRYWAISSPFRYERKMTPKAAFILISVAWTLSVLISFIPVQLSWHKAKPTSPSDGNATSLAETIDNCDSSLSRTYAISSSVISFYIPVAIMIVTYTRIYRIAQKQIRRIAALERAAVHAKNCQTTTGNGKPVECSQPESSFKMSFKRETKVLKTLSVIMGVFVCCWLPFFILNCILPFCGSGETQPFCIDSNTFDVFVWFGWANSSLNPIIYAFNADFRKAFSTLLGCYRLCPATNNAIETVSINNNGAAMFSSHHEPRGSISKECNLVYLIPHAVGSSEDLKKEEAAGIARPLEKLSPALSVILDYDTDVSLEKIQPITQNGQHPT
Sequence of cloned human dopamine receptors D3 (P35462 whole entry): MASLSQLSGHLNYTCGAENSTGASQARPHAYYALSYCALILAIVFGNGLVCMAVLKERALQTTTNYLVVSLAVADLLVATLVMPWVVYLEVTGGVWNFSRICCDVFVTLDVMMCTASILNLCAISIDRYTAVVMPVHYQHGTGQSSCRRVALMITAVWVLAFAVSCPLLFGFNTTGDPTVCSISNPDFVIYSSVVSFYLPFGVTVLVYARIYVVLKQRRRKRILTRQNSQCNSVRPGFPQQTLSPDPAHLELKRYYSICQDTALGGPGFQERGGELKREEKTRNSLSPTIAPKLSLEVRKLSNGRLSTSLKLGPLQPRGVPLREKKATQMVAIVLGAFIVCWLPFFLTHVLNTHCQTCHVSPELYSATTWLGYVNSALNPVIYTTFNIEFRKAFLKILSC
Sequence of cloned human dopamine receptors D2 (P14416 whole entry): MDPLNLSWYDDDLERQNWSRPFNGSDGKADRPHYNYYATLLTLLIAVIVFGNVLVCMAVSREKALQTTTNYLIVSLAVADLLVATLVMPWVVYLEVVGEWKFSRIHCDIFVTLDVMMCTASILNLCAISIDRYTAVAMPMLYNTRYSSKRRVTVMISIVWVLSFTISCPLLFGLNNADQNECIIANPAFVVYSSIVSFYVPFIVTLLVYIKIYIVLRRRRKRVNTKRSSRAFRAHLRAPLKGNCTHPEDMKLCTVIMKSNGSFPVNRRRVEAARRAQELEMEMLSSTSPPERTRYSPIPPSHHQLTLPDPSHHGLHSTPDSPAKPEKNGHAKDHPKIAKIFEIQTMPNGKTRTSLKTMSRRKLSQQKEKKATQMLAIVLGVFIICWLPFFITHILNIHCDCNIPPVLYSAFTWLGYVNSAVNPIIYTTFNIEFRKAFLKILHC

Compound	Affinity to Dopamine Receptors (% Inhibition) D1 [1] [%]	Affinity to Dopamine Receptors (% Inhibition) D3 [2] [%]	IC50 [2] [nM]	Affinity to Dopamine Receptors (% Inhibition) D2 [3] [%]	IC50 [3] [nM]	Affinity to Dopamine Receptors (% Inhibition) D4 [4] [%]	IC50 [4] [nM]
CCOc1ccccc1N1CCN(CCCC2CC(c3cccs3)=NO2)CC1 (racemic) [Compound No. 30]	57.8	101.2	4	88.2	470	102.3	11
COc1ccccc1N1CCN(CCCCC2CC(c3ccccc3)=NO2)CC1 (racemic) [Compound No. 34]	23.6	83.8	–	58.3	–	100.1	–
CCOc1ccccc1N1CCN(CCCC2CC(c3ccc(OC)c(OC)c3)=NO2)CC1 (racemic) [Compound No. 29]	40.1	–	–	83.5	110	57.4	108
COc1ccc(C2=NOC(CCCN3CCN(c4ccccc4OC)CC3)C2)cc1OC (stereo not shown) [Compound No. 9]	19.6	101.2	5	57.7	1440	104.4	23
COc1ccc(C2=NOC(CCCN3CCN(c4ccccc4)CC3)C2)cc1OC (stereo not shown) [Compound No. 7]	9.0	102.5	21	49.0	9230	103.9	71
COc1ccccc1N1CCN(CCCC2CC(c3cccs3)=NO2)CC1 (stereo not shown) [Compound No. 10]	19.9	99.9	19	56.0	1930	103.6	34
